Consider 1 compound from patent US20020061888A1, “Combination therapy for the prophylaxis and treatment of hyperlipidemic conditions and disorders” (priority 2000, published 2002).

What all share (format): in vivo
In series [1] the test system is Male beagle dogs. Briefly: Fecal bile acid concentration in beagle dogs (enzymatic 3α-hydroxysteroid dehydrogenase assay of fecal extracts). As to conditions: pravastatin monotherapy 10 mg/kg/day; for FECAL BILE ACID CONCENTRATION: n = 6. As for the experimental part:
Male beagle dogs (9-10 kg) obtained from Marshall farms were fed a normal chow diet once a day for a two hour interval and given water ad libitum. Prior to initiating treatment, the dogs were weighed and blood samples were drawn from the cephalic vein of each dog following an overnight fast to evaluate pretreatment serum total cholesterol levels at the start of the study. […] All doses were administered in gelatin capsules per os to each dog between 9:00-9:30 a.m. prior to feeding. All animals were fed between 9:30-10:00 a.m. and were allowed two hours to eat, at which time any remaining food was removed. […] Three consecutive 24 hour fecal samples were collected for each group during the last 72 hours of each week and used to measure the concentration of fecal biles acids excreted during that time period.
Fecal samples were collected to determine the fecal bile acid (“FBA”) concentration for each animal. Three consecutive 24 hour fecal samples were collected between 8:00 a.m. and 9:00 a.m. each day, prior to dosing and feeding, during the last 72 hour period of each week. The separate daily collections from each dog were weighed, combined and homogenized with distilled water in a food processor to generate a homogeneous slurry. A 1.4 g sample of fecal homogenate was extracted with 2.6 mL of a solution containing tertiary butanol:distilled water in the ratio of 2:0.6 (final concentration of 50% tertiary butanol v/v distilled water) for 45 minutes in a 37° C. water bath and centrifuged for 13 minutes at 2000 x g. The concentration of bile acids (μmoles/gram homogenate) was determined using a 96-well enzymatic assay system described in van der Meer et al., “t-Butanol Extraction of Feces: A Rapid Procedure For Enzymic Determination Of Fecal Bile Acids”, Cholesterol, Metabolism in Health and Disease: Studies in the Netherlands, edited by Beynen, et al., Ponsen and Looyen, Wageningen, 1985; and Turley et al., “Re-evaluation of the 3 Alpha-Hydroxysteroid Dehydrogenase Assay For Total Bile Acids In Bile”, J. Lipid Research, 19:924-928, 1978.
A 20 μL aliquot of each fecal extract was added to each of two sets of triplicate wells in a 96-well assay plate. A standardized sodium taurocholate solution and a standardized fecal extract solution (previously made from pooled samples and characterized for its bile acid concentration) were also analyzed for assay quality control. A standard curve of five points containing 30-540 nmoles/well was generated by serial dilutions of an initial 20 μL aliquot of 90 mM sodium taurocholate. A 230 μL aliquot of a reaction mixture containing 1M hydrazine hydrate, 0.1 M pyrophosphate and 0.46 mg/ml NAD was added to each well. Subsequently, a 50 μL aliquot of either 3α-hydroxysteroid dehydrogenase (“HSD”) enzyme (0.8 units/mL) or assay buffer (0.1 M sodium pyrophosphate) was then added to one each of the two sets of triplicates. Following 60 minutes of incubation at room temperature, the optical density at 340 nm was measured and the mean of each set of triplicate samples was calculated. The difference in optical density with and without HSD enzyme was used to determine the bile acid concentration (mM) of each sample based on the sodium taurocholate standard curve. The bile acid concentration of the extract (μmoles/gram homogenate), the total weight of the fecal homogenate (grams) and the body weight of the dogs (kg) were used to calculate the corresponding fecal bile acid concentration in μtmoles/kg/day for each animal.
All reagents used for the assay were obtained from Sigma Chemical Co., St. Louis, Mo. (HSD enzyme—catalog # H-1506; NAD—catalog # N1636; sodium taurocholate—catalog # T-4009).

Series [2] relates to Male beagle dogs. Briefly: Body or fecal weights, stool consistency, general animal health of treated beagle dogs. As to conditions: Example 3 study (pravastatin 3-30 mg/kg/day, compound A-5 4.0 mg/kg/day, combination), any of the groups. As for the experimental part: Male beagle dogs (9-10 kg) obtained from Marshall farms were fed a normal chow diet once a day for a two hour interval and given water ad libitum. Prior to initiating treatment, the dogs were weighed and blood samples were drawn from the cephalic vein of each dog following an overnight fast to evaluate pretreatment serum total cholesterol levels at the start of the study. […] All doses were administered in gelatin capsules per os to each dog between 9:00-9:30 a.m. prior to feeding. All animals were fed between 9:30-10:00 a.m. and were allowed two hours to eat, at which time any remaining food was removed. […] Animals were dosed daily for three weeks and blood samples were taken at the end of each week after an overnight fast for comparison with pretreatment serum total cholesterol levels. Three consecutive 24 hour fecal samples were collected for each group during the last 72 hours of each week and used to measure the concentration of fecal biles acids excreted during that time period.
(§1) Following this initial four week dose-ranging study, dogs from the two groups receiving 10 mg/kg/day pravastatin (a.m. and p.m. dosing groups) were randomized into two new treatment groups based on serum total cholesterol levels to initiate the combination treatment study. […] Dosing continued in this manner for an additional four weeks (Weeks 5-8) with blood and 48-hour fecal samples collected at the end of each week for serum lipid measurements and fecal bile acid determinations, respectively. […] At the end of this three-week period, pravastatin dosing and all empty capsule dosing were discontinued and blood samples were collected weekly for a final three weeks (weeks 12-14) to monitor the return of serum total cholesterol levels back to baseline.
Male beagle dogs (9-10 kg) obtained from Marshall farms were fed once a day for two hours and given water ad libitum.

For series [3], the system named is Male beagle dogs. Description: Serum triglyceride in beagle dogs. To be noted: n = 6. As for the experimental part:
as §1
Blood was collected from the cephalic vein of each dog into serum separator tubes. The blood was centrifuged at 900×g for 20 minutes at room temperature and the serum decanted. All analyses were performed on a Cobas Mira Clinical Analyzer System (Roche Diagnostic Systems, Branchburg, N.J.) using Roche Diagnostic reagents for enzymatic determinations of serum cholesterol and triglycerides. Commercial calibrator and quality control materials were analyzed with each run to verify assay accuracy and precision. A two-tailed, paired Students t-test was used to determine the statistical significance of changes in total serum cholesterol in treated animals compared to their pretreatment values. A two-sample, two-tailed unequal variance Students t-test was used to determine serum total cholesterol and triglyceride changes in the combination therapy group compared to the monotherapy groups. […]

As to `CC[C@H](C)C(=O)O[C@H]1C[C@H](O)C=C2C=C[C@H](C)[C@H](CC[C@@H](O)C[C@@H](O)CC(=O)O)[C@H]21` [pravastatin, Pravastatin], the “% change in fecal bile acid concentration from Week 0” value in the series on Male beagle dogs [1] (Week 5) is “(−54) %”; in the series with Male beagle dogs [1] (Week 6), “(−38) %”; with Male beagle dogs [1] (Week 7), “(−19) %”; in the series with Male beagle dogs [1] (Week 8), “(−30) %”; with Male beagle dogs [1] (Week 9), “(−24) %”; in the series with Male beagle dogs [1] (Week 10), “(−24) %”. Further, the “FECAL BILE ACID CONCENTRATION” value in the series on Male beagle dogs [1] (Week 5, mean ± SEM) is 17 ± 5 µmol/kg/day; with Male beagle dogs [1] (Week 6, mean ± SEM), 23 ± 7 µmol/kg/day; in the series with Male beagle dogs [1] (Week 7, mean ± SEM) it was 30 ± 6 µmol/kg/day; with Male beagle dogs [1] (Week 8, mean ± SEM), 26 ± 9 µmol/kg/day; with Male beagle dogs [1] (Week 9, mean ± SEM), 28 ± 5 µmol/kg/day; with Male beagle dogs [1] (Week 10, mean ± SEM), 28 ± 6 µmol/kg/day. Further, the “changes in body or fecal weights, stool consistency or general animal health” value in the series with Male beagle dogs [2] was “no significant changes”. Also, the “TOTAL SERUM TRIGLYCERIDE” value was determined as 30 ± 4 mg/dL in the series on Male beagle dogs [3] (pravastatin monotherapy 10 mg/kg/day, dosed Weeks 1-11, Week 4, mean ± SEM); 34 ± 3 mg/dL in the series on Male beagle dogs [3] (pravastatin monotherapy 10 mg/kg/day, dosed Weeks 1-11, Week 5, mean ± SEM); 35 ± 4 mg/dL with Male beagle dogs [3] (pravastatin monotherapy 10 mg/kg/day, dosed Weeks 1-11, Week 6, mean ± SEM); 37 ± 3 mg/dL in the series with Male beagle dogs [3] (pravastatin monotherapy 10 mg/kg/day, dosed Weeks 1-11, Week 7, mean ± SEM); 38 ± 5 mg/dL in the series with Male beagle dogs [3] (pravastatin monotherapy 10 mg/kg/day, dosed Weeks 1-11, Week 8, mean ± SEM); 34 ± 2 mg/dL in the series on Male beagle dogs [3] (pravastatin monotherapy 10 mg/kg/day, dosed Weeks 1-11, Week 9, mean ± SEM). For the same compound, the “TOTAL SERUM TRIGLYCERIDE” value in the series on Male beagle dogs [3] (pravastatin monotherapy 10 mg/kg/day, dosed Weeks 1-11, Week 11, mean ± SEM) is reported as 33 ± 3 mg/dL; in the series on Male beagle dogs [3] (pravastatin monotherapy group, dosing terminated after Week 11, Week 12, mean ± SEM), 46 ± 4 mg/dL; with Male beagle dogs [3] (pravastatin monotherapy group, dosing terminated after Week 11, Week 13, mean ± SEM), 44 ± 3 mg/dL; in the series on Male beagle dogs [3] (pravastatin monotherapy group, dosing terminated after Week 11, Week 14, mean ± SEM) it was 40 ± 4 mg/dL.
